# From patent US11485742B2, “2-azaspiro[3.4]octane derivatives as M4 agonists” (NOVARTIS AG, priority 2019, dated 2022)
# Experiments:
# Format in all cases: cell-based
# [1] = target: T1, human cloned CHRM5 receptor (Homo sapiens, UniProt P08912); experiment: CHRM5 Ca++ Flux Assay (M5_CHO cells, agonist mode); conditions: for M5 FDSS PA %: Percent Activity (PA) measured to EC100 of Carbachol; for EC50: agonist mode, geometric mean if tested more than once, read-out: M5 FDSS EC50
# T1 construct: expressed in transfected cells; host or cells: CHO (M5_CHO)
# T1 sequence (P08912 1-532): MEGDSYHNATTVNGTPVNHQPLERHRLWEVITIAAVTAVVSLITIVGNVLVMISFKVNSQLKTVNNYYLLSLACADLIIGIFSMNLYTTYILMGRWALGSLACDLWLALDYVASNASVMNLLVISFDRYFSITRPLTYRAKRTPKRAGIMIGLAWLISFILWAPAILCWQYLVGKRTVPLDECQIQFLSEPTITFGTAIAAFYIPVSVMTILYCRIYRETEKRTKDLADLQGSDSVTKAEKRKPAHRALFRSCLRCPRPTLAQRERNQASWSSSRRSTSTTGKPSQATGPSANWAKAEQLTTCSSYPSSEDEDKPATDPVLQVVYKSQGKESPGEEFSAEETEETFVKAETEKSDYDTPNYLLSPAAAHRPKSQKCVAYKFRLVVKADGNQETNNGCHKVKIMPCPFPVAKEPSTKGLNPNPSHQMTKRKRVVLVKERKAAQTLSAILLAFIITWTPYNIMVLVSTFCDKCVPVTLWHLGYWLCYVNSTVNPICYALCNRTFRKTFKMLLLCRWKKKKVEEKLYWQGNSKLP
# Procedure: (§1) The above examples were characterized by measuring the intracellular mobilization of Ca^++ ions caused by signaling events mediated by the receptor. The Intra-cellular Calcium flux levels were captured by the highly sensitive Ca^++ indicator, Calcium Assay Kit (BD Biosciences; Catalog Number 640178. The fluorescent activity from all receptors were monitored by the fluorescent imager, FDSS 7000EX (Hamamatsu) over a span of 3 minutes. The change in Calcium flux was readily captured upon activation with the muscarinic orthosteric agonist, Carbachol.
# (§2) CHO-K1 cells stably expressing the human cloned CHRM3 receptor (M3_CHO cells) were grown and maintained in a monolayer culture with F12/HAM (Life Technologies) supplemented with 10% Fetal Bovine Serum, IX Pen-Strep, and 0.4 mg/mL Geneticin in a humidified atmosphere (5% CO2) at 37° C. The cultures were grown to 80-90% confluency in T150 flasks (Corning) and washed with 1×DPBS and lifted with 0.05% Trypsin (Life Technologies). The cells were then spun (1K rpm, 3 minutes) and frozen using Recovery Cell Culture Freezing Media (Gibco Technologies). Cells were stored in liquid nitrogen and thawed a day before the assay. A similar procedure was used for cells stably expressing the human cloned CHRM5 receptor (M5_CHO).
# (§3) Prior to the day of the assay, stable M3_CHO or M5_CHO cells were thawed and plated on Greiner 384 well black TC treated plates at 12K cells/well in F12/DMEM supplemented with 10% FBS (Hyclone) and kept overnight in a humidified atmosphere (5% CO2) at 37° C. The next day, cells were loaded with Ca^++ dye (BD Biosciences) using Loading Buffer (HBSS +Ca/+Mg, 20 mM HEPES, 2.5 mM Probenecid) and placed back in cell incubator for a minimum of 1 hour. After incubation, the dye was replaced with Assay Buffer (HBSS −Ca/−Mg, 20 mM HEPES, 2.5 mM Probenecid) and kept at room temperature in the dark before running on cell imager. The FDSS 7000EX (Hamamatsu) was used to acquire Ca^+− traces from cells treated with 11 point dose response of compounds in triplicate in order to generate dose response curves in agonist mode. All compounds were serially diluted in DMSO then prepared in Assay Buffer for Ca^++ flux studies. The dose response curves were generated from the average of triplicate wells obtained from each data point and used a non-linear regression of four parameter dose response algorithm. The Percent Activity (PA) was measured to EC100 of Carbachol.
# (§4) If an Example was tested more than once in an assay, then the values below represent the geometric mean of the results from each independent experiment.
# [2] = target: T2, human cloned CHRM3 receptor (Homo sapiens, UniProt P20309); experiment: CHRM3 Ca++ Flux Assay (M3_CHO cells, agonist mode); conditions: for M3 FDSS PA %: Percent Activity (PA) measured to EC100 of Carbachol; for EC50: agonist mode, geometric mean if tested more than once, read-out: M3 FDSS EC50
# T2 construct: expressed in transfected cells; host or cells: CHO-K1 (M3_CHO)
# Procedure: as §1, §2, §3, §4
# [3] = target: T3, Cloned human M1 receptor (CHRM1) (Homo sapiens, UniProt P11229); experiment: CHRM1 Ca++ Flux Assay (HEK293 M1 cells, agonist mode); conditions: for M1 FDSS PA %: Percent Activity (PA); for EC50: geometric mean if tested more than once, read-out: M1 FDSS EC50
# T3 construct: expressed in transfected cells; host or cells: HEK293
# T3 sequence (P11229 1-460): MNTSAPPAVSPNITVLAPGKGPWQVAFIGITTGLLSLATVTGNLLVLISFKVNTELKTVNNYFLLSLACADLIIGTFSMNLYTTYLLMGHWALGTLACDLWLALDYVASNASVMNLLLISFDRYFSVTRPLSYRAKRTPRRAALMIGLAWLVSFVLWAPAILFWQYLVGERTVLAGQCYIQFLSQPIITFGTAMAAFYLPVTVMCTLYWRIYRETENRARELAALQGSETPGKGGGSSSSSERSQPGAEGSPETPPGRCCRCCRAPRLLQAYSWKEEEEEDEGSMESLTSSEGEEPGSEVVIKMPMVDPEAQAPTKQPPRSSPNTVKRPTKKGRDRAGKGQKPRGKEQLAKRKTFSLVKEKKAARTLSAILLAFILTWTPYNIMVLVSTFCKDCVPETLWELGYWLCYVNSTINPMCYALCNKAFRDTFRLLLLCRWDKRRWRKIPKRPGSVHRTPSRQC
# Procedure: as §1
# Cloned human M1 receptor (CHRM1) was stably expressed in HEK293 cells and were grown and maintained in a monolayer culture with DMEM/High Glucose (Life Technologies) supplemented with 10% Fetal Bovine Serum, 1×Pen-Strep, and 0.5 mg/mL Geneticin in a humidified atmosphere (5% CO2) at 37° C. The cultures were grown to 90% confluency in T150 flasks (Corning) and washed with 1×DPBS and lifted with 0.05% Trypsin (Life Technologies). The cells were then spun (1K rpm, 3 minutes) and frozen using Recovery Cell Culture Freezing Media (Gibco Technologies). Cells were stored in liquid nitrogen and thawed a day before the assay.
# Prior to the day of the assay, stable HEK293 M1 cells were thawed and plated on 384 well black walled clear bottom TC treated plates (Greiner Cat #781091) at 25K cells/well with DMEM/High Glucose supplemented with 10% FBS (Hyclone) Pen-Strep (Life Technologies) and kept overnight in a humidified atmosphere (5% CO2) at 37° C. The following day, cells were loaded with 20 uL Ca^++ dye (BD Biosciences) using Loading Buffer (HBSS +Ca/+Mg, 20 mM HEPES) and placed back in cell incubator for a minimum of 1 hour. The dye was replaced with 45 μL Assay Buffer (HBSS −Ca/−Mg, 20 mM HEPES) and kept at room temperature prior to running on cell imager. Compounds were prepared in Assay Buffer and 5 uL was added to the cells. The FDSS 7000EX (Hamamatsu) was used to acquire Ca++ traces for 3 minutes from cells treated with 11 point dose in triplicate in order to generate dose response curves in agonist mode. All compounds were serially diluted in DMSO then prepared in Assay Buffer for Ca^++ flux studies. The dose response curves were generated from the average of triplicate wells obtained from each data point and used a non-linear regression of four parameter dose response algorithm. The Percent Activity (PA) was measured to EC100 of Carbachol.
# as §4
# T2 sequence (P20309 whole entry): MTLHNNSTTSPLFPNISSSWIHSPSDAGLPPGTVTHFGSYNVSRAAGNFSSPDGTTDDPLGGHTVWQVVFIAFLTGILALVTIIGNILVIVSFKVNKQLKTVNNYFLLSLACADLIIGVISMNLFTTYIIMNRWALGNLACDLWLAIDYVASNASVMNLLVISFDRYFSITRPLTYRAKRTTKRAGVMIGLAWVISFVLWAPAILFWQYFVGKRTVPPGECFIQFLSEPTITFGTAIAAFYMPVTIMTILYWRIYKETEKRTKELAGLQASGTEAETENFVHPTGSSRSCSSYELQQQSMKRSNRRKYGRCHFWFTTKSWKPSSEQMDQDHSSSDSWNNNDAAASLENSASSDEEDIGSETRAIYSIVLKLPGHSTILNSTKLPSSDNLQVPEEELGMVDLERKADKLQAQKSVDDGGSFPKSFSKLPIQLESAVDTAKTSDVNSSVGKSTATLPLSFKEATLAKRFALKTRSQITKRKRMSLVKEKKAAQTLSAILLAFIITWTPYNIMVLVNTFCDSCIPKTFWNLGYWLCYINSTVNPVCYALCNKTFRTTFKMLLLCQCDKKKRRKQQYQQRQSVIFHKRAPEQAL
M5 FDSS PA % [1],EC50 [1],M3 FDSS PA % [2],EC50 [2],M1 FDSS PA % [3],EC50 [3],Compound
0%,> 25 µM,0%,> 25 µM,96%,2.57 µM,"OC[C@H]1C[C@H](Oc2ccc(F)cc2C2CCN([C@@H]3COC4(C3)CN(c3nnco3)C4)CC2)C1 (single isomer, unassigned) [Example 2HH, ((1S,3r)-3-(2-(1-((S)-2-(1,3,4-oxadiazol-2-yl)-5-oxa-2-azaspiro[3.4]octan-7-yl)piperidin-4-yl)-4-fluorophenoxy)cyclobutyl)methanol or ((1R,3s)-3-(2-(1-((S)-2-(1,3,4-oxadiazol-2-yl)-5-oxa-2-azaspiro[3.4]octan-7-yl)piperidin-4-yl)-4-fluorophenoxy)cyclobutyl)methanol]"
0%,> 25 µM,0%,> 25 µM,71%,5.09 µM,"CC1(C)C[C@@H](Oc2ccc(F)cc2C2CCN([C@@H]3COC4(C3)CN(c3nnco3)C4)CC2)CO1 (single isomer, unassigned) [Example 2N, (S)-7-(4-(2-(((R)-5,5-dimethyltetrahydrofuran-3-yl)oxy)-5-fluorophenyl)piperidin-1-yl)-2-(1,3,4-oxadiazol-2-yl)-5-oxa-2-azaspiro[3.4]octane or (S)-7-(4-(2-(((S)-5,5-dimethyltetrahydrofuran-3-yl)oxy)-5-fluorophenyl)piperidin-1-yl)-2-(1,3,4-oxadiazol-2-yl)-5-oxa-2-azaspiro[3.4]octane]"

# More lines, now with the values behind:
Compound,M5 FDSS PA % [1],EC50 [1],M3 FDSS PA % [2],EC50 [2],M1 FDSS PA % [3],EC50 [3]
"Fc1ccc(OC[C@H]2CCO2)c(C2CCN([C@@H]3COC4(C3)CN(c3nncs3)C4)CC2)c1.O=C(O)C(F)(F)F (single isomer, unassigned) [Example 2C, (S)-7-(4-(5-fluoro-2-(((R)-oxetan-2-yl)methoxy)phenyl)piperidin-1-yl)-2-(1,3,4-thiadiazol-2-yl)-5-oxa-2-azaspiro[3.4]octane trifluoroacetate or (S)-7-(4-(5-fluoro-2-(((S)-oxetan-2-yl)methoxy)phenyl)piperidin-1-yl)-2-(1,3,4-thiadiazol-2-yl)-5-oxa-2-azaspiro[3.4]octane trifluoroacetate]",0%,> 25 µM,0%,> 25 µM,75%,1.15 µM
"Fc1ccc(OC[C@H]2CCO2)c(C2CCN([C@@H]3COC4(C3)CN(c3nncs3)C4)CC2)c1.O=C(O)C(F)(F)F (single isomer, unassigned) [Example 2D, (S)-7-(4-(5-fluoro-2-(((R)-oxetan-2-yl)methoxy)phenyl)piperidin-1-yl)-2-(1,3,4-thiadiazol-2-yl)-5-oxa-2-azaspiro[3.4]octane trifluoroacetate or (S)-7-(4-(5-fluoro-2-(((S)-oxetan-2-yl)methoxy)phenyl)piperidin-1-yl)-2-(1,3,4-thiadiazol-2-yl)-5-oxa-2-azaspiro[3.4]octane trifluoroacetate]",0%,> 25 µM,0%,> 25 µM,72%,0.289 µM
"OC[C@H]1C[C@H](Oc2ccc(F)cc2C2CCN([C@@H]3COC4(C3)CN(c3nnco3)C4)CC2)C1 (single isomer, unassigned) [Example 2II, ((1S,3r)-3-(2-(1-((S)-2-(1,3,4-oxadiazol-2-yl)-5-oxa-2-azaspiro[3.4]octan-7-yl)piperidin-4-yl)-4-fluorophenoxy)cyclobutyl)methanol or ((1R,3s)-3-(2-(1-((S)-2-(1,3,4-oxadiazol-2-yl)-5-oxa-2-azaspiro[3.4]octan-7-yl)piperidin-4-yl)-4-fluorophenoxy)cyclobutyl)methanol]",0%,> 25 µM,0%,> 25 µM,107%,4.05 µM
"CC1(C)C[C@@H](Oc2ccc(F)cc2C2CCN([C@@H]3COC4(C3)CN(c3nnco3)C4)CC2)CO1 (single isomer, unassigned) [Example 2O, (S)-7-(4-(2-(((R)-5,5-dimethyltetrahydrofuran-3-yl)oxy)-5-fluorophenyl)piperidin-1-yl)-2-(1,3,4-oxadiazol-2-yl)-5-oxa-2-azaspiro[3.4]octane or (S)-7-(4-(2-(((S)-5,5-dimethyltetrahydrofuran-3-yl)oxy)-5-fluorophenyl)piperidin-1-yl)-2-(1,3,4-oxadiazol-2-yl)-5-oxa-2-azaspiro[3.4]octane]",0%,> 25 µM,0%,> 25 µM,72%,1.12 µM
"Fc1ccc(O[C@H]2CCCOC2)c(C2CCN([C@@H]3COC4(C3)CN(c3nnco3)C4)CC2)c1 (single isomer, unassigned) [Example 2Q, (S)-7-(4-(5-fluoro-2-(((S)-tetrahydro-2H-pyran-3-yl)oxy)phenyl)piperidin-1-yl)-2-(1,3,4-oxadiazol-2-yl)-5-oxa-2-azaspiro[3.4]octane or (S)-7-(4-(5-fluoro-2-(((R)-tetrahydro-2H-pyran-3-yl)oxy)phenyl)piperidin-1-yl)-2-(1,3,4-oxadiazol-2-yl)-5-oxa-2-azaspiro[3.4]octane]",0%,> 25 µM,0%,> 25 µM,80%,2.02 µM
